# Patent US6458840B2, “Use of valproic acid analog for the treatment and prevention of migraine and affective illness” (American Biogenetic Sciences, Inc., priority 1998, dated 2002)
# Several values for one entry are separate records, joined by “and”; a condition that tells them apart may be missing. Identical values can stand only once.
# Experiments:
# [1] = Rotarod test (neurological deficit) in kindled rats; type: in vivo, rat
# Protocol: (§1) Tests included open field observations, rotarod test and body temperature. Tests were always performed in the same manner in control and drug experiments at two different times, just before application of drug or vehicle and 13 minutes after application.
# The rotarod test was carried out with a rod of 6 cm diameter and rotation speed of 8 r.p.m. Neurological deficit was indicated by inability of the animals to maintain their equilibrium for at least 1 min on the rotating rod. Rats had to be trained prior to drug experiments to maintain their balance on the rod. After drug or vehicle treatment, rats which were not able to maintain their equilibrium on the rod for 1 minute were put again on the rod twice.
# [2] = tested on: amygdala-kindled seizures; test: Amygdala-kindling in fully kindled rats (anti-seizure effects); type: in vivo, rat; details: for afterdisch.dur.1 (ADD1) / afterdisch.dur.2 (ADD2) / afterdisch.thresh. (ADT) / seizure duration1 (SD1) / seizure duration2 (SD2) / seizure severity (SS): 15 min pretreatment, mean (X); for seizure severity (SS): Racine score; for increase of afterdischarge threshold: versus pre-drug control
# Protocol: For implantation of stimulation and recording electrodes, rats were anesthetized with chloral hydrate (360 mg/kg i.p.) and received stereotaxic implantation (according to the surgery methods described in the atlas of Paxinos and Watson [1986]) of one bipolar electrode in the right basolateral amygdala. Coordinates for electrode implantation were AP-2.2 mm, L-4.8 mm, V-8.5 mm. All coordinates were measured from bregma. Skull screws served as the indifferent reference electrode. The electrode assembly was attached to the skull by dental acrylic cement. After a postoperative period of 2 weeks, constant current stimulations (500 μA, 1 ms, monophasic square-wave pulses, 50/s for 1 s) were delivered to the amygdala at intervals of 1/day until ten stage 5 seizures were elicited. The electrical susceptibility of the stimulated region (threshold for induction of afterdischarges) was recorded on the first day of the experiment (initial afterdischarge threshold) as well as after kindling acquisition (with an interval of at least 4 days after the tenth stage 5 seizure) using an ascending staircase procedure. The initial current intensity was 1 OμA, and the current intensity was increased in steps of about 20% of the previous current at intervals of 1 min until an afterdischarge of at least 3 s duration was elicited. […] In addition to afterdischarge threshold, the following parameters of kindled seizures were measured in fully-kindled rats after stimulation with the afterdischarge threshold current: seizure severity was classified according to Racine (1972): 1 -immobility, eye closure, twitching of vibrissae, sniffing, facial clonus; 2-head nodding associated with more severe facial clonus; 3-clonus of one forelimb; 4-rearing, often accompanied by bilateral forelimb clonus; 5-rearing with loss of balance and falling accompanied by generalized clonic seizures. Seizure duration 1 (SD 1) was the duration of limbic (stage 1-2) and/or motor seizures (stage 3-5). Seizure duration 2 (SD 2) included the time of limbic and/or motor seizures plus the adjacent time of immobility. Afterdischarge duration 1 (ADD 1) was the time of spikes in the EEG recorded from the site of stimulation with a frequency of at least 1 /s. Afterdischarge duration 2 (ADD 2) was the total time of spikes occurring in the EEG including those, which followed the ADD 1 with lower frequency and amplitude.
# The anti-seizure effects of 2-propyl-4-hexynoic acid and valproate in fully kindled rats were determined in a group of 8-9 rats (no. 784, 785, 787, 788, 789, 790 [had to be taken out of the trial, because of loss of electrodes], 791, 792, 793) with reproducible stage 5 seizures.
# Drugs were injected 15 min prior to stimulation intraperitoneally. Control experiments were always performed 2-3 days before each drug experiment. For control determinations, rats received i.p. injections of vehicle (saline) with the pretreatment time of the respective drug experiment. For all drug experiments, at least 4 days were interposed between 2 drug injections in order to avoid alterations in drug potency due to cumulation or tolerance.
# The significance of differences between pre-drug control recordings and recordings after drug injection was calculated by the Wilcoxon signed rank test for paired replicates (SigmaStat for Windows, version 1.0).
# Drug solubility test = type: physicochemical; details: read-out: concentration in drug solubility test
# [3] = Open field observation, behavioral rating of adverse effects; type: in vivo, rat; details: for antaxia (1-6) / hypolocomotion (1-3) / muscle relaxation (1-3): 13′ after application, mean (X)
# Protocol: as §1
# In addition to these quantitative estimations of neurological deficit, behavioral alterations observed after administration of 2-propyl-4-hexynoic acid and valproate noted in the cage and by placing the animals in an open field of 90-100 cm diameter. Muscle tone was estimated by palpation of the abdomen. The extent of deficits in behavior after administration of the compounds was determined by a rating system (Loscher et al. 1987). In short, animals were taken out of the cage, placed in an open field, observed for about 1 minute and rated separately for ataxia, abducted hindlimbs, reduced righting, flat body posture, circling, Straub tail, piloerection, hypolocomotion and hyperlocomotion (abdominal muscle tone was evaluated by palpation at the end of the period of observation). All other parameters except ataxia were scored from 0 to 3: 0-absent; 1-equivocal; 2-present; 3- intense. For ataxia (06): 1 -slight ataxia in hind-legs (tottering of the hind quarters); 2-more pronounced ataxia with dragging of hind legs; 3-further increase of ataxia and more pronounced dragging of hind legs; 4-marked ataxia, animals lose balance during forward locomotion; 5- very marked ataxia with frequent loss of balance during forward locomotion; 6-permanent loss of righting reflexes, but animal still attempts to move forward. Rectal body temperature was measured by an electronic thermometer. Body weight of the animals was recorded once daily before drug injection. Significance of differences in behavior between pre-drug and post-drug data determined in the same group of animals was calculated by the Wilcoxon signed rank test for paired replicates and for body temperature by Student's paired t-test (SigmaStat for Windows, version 1.0). Differences in body temperature were always compared only within the experimental day with the pre-drug time as control to one post-drug time.
# [4] = 50 mg/kg i.p., 13′ after application
# [5] = 75 mg/kg i.p., 13′ after application
# [6] = doses 50, 75, 100, 200 mg/kg i.p.
# [7] = 100 mg/kg i.p., listed as valproate
# [8] = 200 mg/kg i.p., listed as valproate
smiles,measurement,setting,value
"CC#CCC(CCC)C(=O)O (stereo not drawn) [2-propyl-4-hexynoic acid, 2-n-propyl-4-hexynoic acid]","rotarod-test, day of exper.",[1]; [4],0%
same,"rotarod-test, day of exper.",[1]; [5],0%
same,"rotarod-test, day of exper.","[1]; 200 mg/kg, 13′, all 8 animals +",0%
same,"rotarod-test, in words",[1]; [6],performed successfully by all individuals
same,"effects against amygdala-kindled seizures, in words",[2]; 50 mg/kg i.p.,no significant effects
same,afterdisch.dur.1 (ADD1),[2]; 50 mg/kg i.p.,93.11 s
same,afterdisch.dur.2 (ADD2),[2]; 50 mg/kg i.p.,93.11 s
same,afterdisch.thresh. (ADT),[2]; 50 mg/kg i.p.,37.33 μA
same,seizure duration1 (SD1),[2]; 50 mg/kg i.p.,78.44 s
same,seizure duration2 (SD2),[2]; 50 mg/kg i.p.,234.33 s
same,seizure severity (SS),[2]; 50 mg/kg i.p.,4.89 score
same,afterdisch.dur.1 (ADD1),[2]; 75 mg/kg i.p.,16.25 s
same,afterdisch.dur.2 (ADD2),[2]; 75 mg/kg i.p.,16 s and 16.25 s
same,afterdisch.thresh. (ADT),[2]; 75 mg/kg i.p.,88.50 μA
same,seizure duration1 (SD1),[2]; 75 mg/kg i.p.,16 s and 16.25 s
same,seizure duration2 (SD2),[2]; 75 mg/kg i.p.,16.25 s
same,seizure severity (SS),[2]; 75 mg/kg i.p.,2.3 score and 2.25 score
same,increase of afterdischarge threshold,[2]; 75 mg/kg i.p.,109%
same,seizure duration1 (SD1),[2]; 100 mg/kg i.p.,47 s
same,seizure severity (SS),[2]; 100 mg/kg i.p.,3.6 score
same,increase of afterdischarge threshold,[2]; 100 mg/kg i.p.,160%
same,afterdisch.dur.2 (ADD2),[2]; 200 mg/kg i.p.,24 s
same,seizure duration1 (SD1),[2]; 200 mg/kg i.p.,19 s
same,seizure severity (SS),[2]; 200 mg/kg i.p.,1.8 score
same,increase of afterdischarge threshold,[2]; 200 mg/kg i.p.,209%
same,afterdisch.thresh. (ADT; μA),"[2]; 200 mg/kg, mean (X) of 8 kindled rats, control mean 57.88",178.75 μA
same,seizure severity (SS; score),"[2]; 200 mg/kg, mean of 8 rats, control mean 4.63",1.75 score
same,seizure duration1 (SD1; sec),"[2]; 200 mg/kg, mean of 8 rats, control mean 61.63",19.25 s
same,afterdisch.dur.1 (ADD1;sec),"[2]; 200 mg/kg, mean of 8 rats, control mean 77.25",23.50 s
same,afterdisch.dur.2 (ADD2; sec),"[2]; 200 mg/kg, mean of 8 rats, control mean 88.13",23.50 s
same,seizure duration2 (SD2; sec),"[2]; 200 mg/kg, mean of 8 rats, control mean 197.88",36.38 s
same,solubility,Drug solubility test,18.5 mg/mL
same,antaxia (1-6),[3]; 200 mg/kg i.p.,1.5 score
same,hypolocomotion (1-3),[3]; 200 mg/kg i.p.,1.4 score
same,muscle relaxation (1-3),[3]; 200 mg/kg i.p.,1.4 score
same,BEHAVIOR (score) antaxia (1-6),"[3]; 200 mg/kg, 13′, mean of 8 rats",1.50 score
same,BEHAVIOR (score) hypolocomotion (1-3),"[3]; 200 mg/kg, 13′, mean of 8 rats",1.38 score
same,BEHAVIOR (score) muscle relaxation (1-3),"[3]; 200 mg/kg, 13′, mean of 8 rats",1.38 score
same,BEHAVIOR (score) red. righting (1-3),"[3]; 200 mg/kg, 13′, mean of 8 rats",0.75 score
same,"adverse effects, in words",[3]; [6],only observed at the highest dose of 200 mg/kg and were milder than with valproate
"CCCC(CCC)C(=O)O [Valproate, valproic acid]","rotarod-test, day of exper.",[1]; [4],0%
same,"rotarod-test, day of exper.",[1]; [5],0%
same,"rotarod test, in words",[1]; 100 mg/kg i.p.,performed without failure
same,"rotarod-test, day of exper.","[1]; 100 mg/kg i.p., 13′ after application",0%
same,"rotarod test, in words",[1]; 200 mg/kg i.p.,performed without failure
same,"rotarod-test, day of exper.","[1]; 200 mg/kg i.p., 13′ after application",0%
same,afterdisch.dur.1 (ADD1),[2]; 50 mg/kg i.p.,76.67 s
same,afterdisch.dur.2 (ADD2),[2]; 50 mg/kg i.p.,76.67 s
same,afterdisch.thresh. (ADT),[2]; 50 mg/kg i.p.,60.44 μA
same,seizure duration1 (SD1),[2]; 50 mg/kg i.p.,72.22 s
same,seizure duration2 (SD2),[2]; 50 mg/kg i.p.,231.67 s
same,seizure severity (SS),[2]; 50 mg/kg i.p.,4.33 score
same,increase of afterdischarge threshold,[2]; 50 mg/kg i.p.,109%
same,afterdisch.dur.1 (ADD1),[2]; 75 mg/kg i.p.,67.25 s
same,afterdisch.dur.2 (ADD2),[2]; 75 mg/kg i.p.,67.25 s
same,afterdisch.thresh. (ADT),[2]; 75 mg/kg i.p.,73.13 μA
same,seizure duration1 (SD1),[2]; 75 mg/kg i.p.,54.00 s
same,seizure duration2 (SD2),[2]; 75 mg/kg i.p.,250.75 s
same,seizure severity (SS),[2]; 75 mg/kg i.p.,4.13 score
same,increase of afterdischarge threshold,[2]; 75 mg/kg i.p.,77%
same,afterdisch.dur.1 (ADD1),[2]; 100 mg/kg i.p.,20.00 s
same,afterdisch.dur.2 (ADD2),[2]; 100 mg/kg i.p.,20.00 s
same,afterdisch.thresh. (ADT),[2]; 100 mg/kg i.p.,151.67 μA
same,seizure duration1 (SD1),[2]; 100 mg/kg i.p.,18.22 s
same,seizure duration2 (SD2),[2]; 100 mg/kg i.p.,43.44 s
same,seizure severity (SS),[2]; 100 mg/kg i.p.,3.00 score
same,seizure severity (SS),[2]; [7],3.0 score
same,afterdisch.dur.2 (ADD2),[2]; [7],20 s
same,seizure duration1 (SD1),[2]; [7],18 s
same,increase of afterdischarge threshold,[2]; 100 mg/kg i.p.,319%
same,afterdisch.dur.1 (ADD1),[2]; 200 mg/kg i.p.,8.75 s
same,afterdisch.dur.2 (ADD2),[2]; 200 mg/kg i.p.,8.75 s
same,afterdisch.thresh. (ADT),[2]; 200 mg/kg i.p.,496.25 μA
same,seizure duration1 (SD1),[2]; 200 mg/kg i.p.,8.75 s
same,seizure duration2 (SD2),[2]; 200 mg/kg i.p.,8.75 s
same,seizure severity (SS),[2]; 200 mg/kg i.p.,1.63 score
same,seizure severity (SS),[2]; [8],1.6 score
same,afterdisch.dur.2 (ADD2),[2]; [8],9 s
same,seizure duration1 (SD1),[2]; [8],9 s
same,increase of afterdischarge threshold,[2]; 200 mg/kg i.p.,970%
same,"effects against amygdala-kindled seizures, in words","[2]; all doses tested: 50, 75, 100, 200 mg/kg i.p.",significant effects against amygdala-kindled seizures
same,solubility,Drug solubility test,20 mg/mL
same,"alterations in behavior, in words",[3]; 100 mg/kg i.p.,No alterations
same,"further adverse effects, in words",[3]; 200 mg/kg i.p.,wet dog shakes
same,antaxia (1-6),[3]; 200 mg/kg i.p.,2.75 score
same,hypolocomotion (1-3),[3]; 200 mg/kg i.p.,1.00 score
same,muscle relaxation (1-3),[3]; 200 mg/kg i.p.,2.00 score
same,antaxia (1-6),[3]; [8],2.8 score
same,hypolocomotion (1-3),[3]; [8],1.0 score
same,muscle relaxation (1-3),[3]; [8],2.0 score
